Measured values published in the supplement of paper PMC10307832.

Columns and labels:
Test in all cases: relative viability (nuclei count vs DMSO), 5 days (fraction); higher = more cells survive
[1] = compound: C#Cc1cccc(Nc2ncnc3cc(OC)c(OCCCCCCC(=O)NO)cc23)c1 [CUDC-101] + Cc1nc(NC(=O)N2CCC[C@H]2C(N)=O)sc1-c1ccnc(C(C)(C)C(F)(F)F)c1 [Alpelisib] (partner 2 µM)
Summary of the method: (§1)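 A single step with final 0.05% Triton X-100, 1% formaldehyde and 1 ug/ml Hoechst fixed the cells and stained nuclei 5 days after treatment. Lung cancer cell lines in 1536-well plates had been treated by pin tool the day after seeding with one drug alone or a fixed anchor-drug dose plus five library-drug doses (not always all listed) in √10 steps, and nuclei were counted on 4× images. Relative viability is the ratio of nuclei in treated wells to nuclei in vehicle wells, taken as the median of duplicate plates.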

[2] = compound: C1=CC=C2C(=C1)N=C(S2)C(C#N)C3=NC(=NC=C3)NCCC4=CN=CC=C4 + COc1cc2c(Oc3ccc(NC(=O)C4(C(=O)Nc5ccc(F)cc5)CC4)cc3F)ccnc2cc1OCCCN1CCOCC1 [Foretinib] (partner 0.25 µM)
Summary of the method: as §1

[3] = compound: C1=CC=C2C(=C1)N=C(S2)C(C#N)C3=NC(=NC=C3)NCCC4=CN=CC=C4 + C[C@@H](Oc1cc(-c2cnn(C3CCNCC3)c2)cnc1N)c1c(Cl)ccc(F)c1Cl [Crizotinib] (partner 1 µM)
Summary of the method: as §1

[4] = compound: COc1cc(N2CCC(N3CCN(C)CC3)CC2)ccc1Nc1ncc(Cl)c(Nc2ccccc2S(=O)(=O)C(C)C)n1 [NVP-TAE684] + COc1cccc2cc(-c3nc([C@H]4CC[C@H](C(=O)O)CC4)n4ncnc(N)c34)[nH]c12 [OSI-027] (partner 0.5 µM)
Summary of the method: as §1

Cell Line	relative viability ([1]; first compound 0.01 µM)	relative viability ([1]; first compound 0.03162 µM)	relative viability ([1]; first compound 0.1 µM)	relative viability ([1]; first compound 0.3162 µM)	relative viability ([1]; first compound 1 µM)	relative viability ([2]; first compound 0.005 µM)	relative viability ([2]; first compound 0.01581 µM)	relative viability ([2]; first compound 0.05 µM)	relative viability ([2]; first compound 0.1581 µM)	relative viability ([2]; first compound 0.5 µM)	relative viability ([3]; first compound 0.005 µM)	relative viability ([3]; first compound 0.01581 µM)	relative viability ([3]; first compound 0.05 µM)	relative viability ([3]; first compound 0.1581 µM)	relative viability ([3]; first compound 0.5 µM)	relative viability ([4]; first compound 0.2 µM)	relative viability ([4]; first compound 0.6325 µM)	relative viability ([4]; first compound 2 µM)
CAL-12T	1.38	0.984	1.42	1.11	1.21	1.06	1.11	0.931	1.27	0.967	0.48	0.561	0.743	0.766	0.37	0.538	0.372	0.158
A-427	1.15	1.1	1.11	1.02	0.887	1.22	1.21	0.946	1.22	1.32	0.69	0.979	0.984	0.951	0.899	0.548	0.396	0.285
NCI-H1975	0.714	0.634	0.686	0.673	0.538	0.779	0.897	0.846	1.08	0.73	0.766	1.18	0.954	1.14	0.667	0.732	0.594	0.341
NCI-H1993	0.742	0.751	0.766	0.671	0.639	0.803	0.768	0.723	0.783	0.665	0.684	0.844	0.762	0.94	0.832	0.494	0.466	0.593
NCI-H2023	0.552	0.581	0.564	0.663	0.565	0.708	0.933	0.857	1.09	0.907	0.592	0.568	0.604	0.706	0.483	0.412	0.258	0.101
201T	0.932	0.937	0.926	1.05	0.88	1.19		1.01	1.08	0.625	0.978	1.03	1.02	1.07	0.995	0.762	0.732	0.474
LK-2	1.08	0.959	1.09	1.05	0.647	1.21	1.21	1.29	1.06	1.64			0.216	0.209	0.238	0.178	0.17	0.168
SW 1573	0.861	0.797	0.852	1.08	0.739	0.963	0.792	0.949	0.994	0.892	0.753	0.809	0.722	0.793	0.785	0.741	0.455	0.226
NCI-H647	1.48	1.14	1.33	1.18	0.794	1.08	1.27	1.28	1.32	1.14		1	0.89	1.38	0.874	0.692	0.58	0.417
